Laboratory results from article PMC12698583, “Efficacy of sulfonamides targeting malic enzyme in an animal model of Chagas disease” (Frontiers in Pharmacology, 2025).

Test: Tolerability study, Hippocratic screening
Format: in vivo, mice
Design: Hypnosis / Sedation / Urination / Tachypnea / Muscle tone / Convulsions / Salivation / Tremors / Vocalization / Limb abduction / Ataxia: scale not given here
Details: 150 mg/kg PO
Experimental: A tolerability study of drug candidates was conducted using the Hippocratic screening protocol, focusing on the assessment of effects on the central nervous system (CNS) and autonomic nervous system (ANS). Each group containing 3 animals received a 150 mg/kg dose of the compounds via oral (PO) administration (gavage). During the experiment, various behavioral and physiological parameters were monitored at regular intervals, ranging from 0 to 24 hours after administration of the substance.

CC(C)Oc1ccc(NS(=O)(=O)c2cccc(NC(=O)c3cnccn3)c2)cc1 [AC-M110, N-(3-(N-(4-isopropoxyphenyl)sulfamoyl)phenyl)pyrazine-2-carboxamide]
0A: Ataxia (0-15 min) | Convulsions (0-15 min) | Hypnosis (0-15 min) | Limb abduction (0-15 min) | Muscle tone (0-15 min) | Pedaling (0-15 min) | Piloerection (0-15 min) | Ptosis (0-15 min) | Salivation (0-15 min) | Sedation (0-15 min) | Tachypnea (0-15 min) | Tremors (0-15 min) | Urination (0-15 min) | Vocalization (0-15 min) | Ataxia (15 min) | Convulsions (15 min) | Hypnosis (15 min) | Limb abduction (15 min) | Muscle tone (15 min) | Pedaling (15 min) | Piloerection (15 min) | Ptosis (15 min) | Salivation (15 min) | Sedation (15 min) | Tachypnea (15 min) | Tremors (15 min) | Urination (15 min) | Vocalization (15 min) | Ataxia (30 min) | Convulsions (30 min) | Hypnosis (30 min) | Limb abduction (30 min) | Muscle tone (30 min) | Pedaling (30 min) | Piloerection (30 min) | Ptosis (30 min) | Salivation (30 min) | Sedation (30 min) | Tachypnea (30 min) | Tremors (30 min) | Urination (30 min) | Vocalization (30 min) | Ataxia (60 min) | Convulsions (60 min) | Hypnosis (60 min) | Limb abduction (60 min) | Muscle tone (60 min) | Pedaling (60 min) | Piloerection (60 min) | Ptosis (60 min) | Salivation (60 min) | Sedation (60 min) | Tachypnea (60 min) | Tremors (60 min) | Urination (60 min) | Vocalization (60 min) | Ataxia (2h) | Convulsions (2h) | Hypnosis (2h) | Limb abduction (2h) | Muscle tone (2h) | Pedaling (2h) | Piloerection (2h) | Ptosis (2h) | Salivation (2h) | Sedation (2h) | Tachypnea (2h) | Tremors (2h) | Urination (2h) | Vocalization (2h) | Ataxia (3h) | Convulsions (3h) | Hypnosis (3h) | Limb abduction (3h) | Muscle tone (3h) | Pedaling (3h) | Piloerection (3h) | Ptosis (3h) | Salivation (3h) | Sedation (3h) | Tachypnea (3h) | Tremors (3h) | Urination (3h) | Vocalization (3h) | Ataxia (4h) | Convulsions (4h) | Hypnosis (4h) | Limb abduction (4h) | Muscle tone (4h) | Pedaling (4h) | Piloerection (4h) | Ptosis (4h) | Salivation (4h) | Sedation (4h) | Tachypnea (4h) | Tremors (4h) | Urination (4h) | Vocalization (4h) | Ataxia (24h) | Convulsions (24h) | Hypnosis (24h) | Limb abduction (24h) | Muscle tone (24h) | Pedaling (24h) | Piloerection (24h) | Ptosis (24h) | Salivation (24h) | Sedation (24h) | Tachypnea (24h) | Tremors (24h) | Urination (24h) | Vocalization (24h)

COc1ccc(NS(=O)(=O)c2cccc(NC(=O)c3cnccn3)c2)cc1 [AC-R008, N-(3-(N-(4-methoxyphenyl)sulfamoyl)phenyl)pyrazine-2-carboxamide]
0A: Ataxia (0-15 min) | Convulsions (0-15 min) | Hypnosis (0-15 min) | Limb abduction (0-15 min) | Muscle tone (0-15 min) | Pedaling (0-15 min) | Piloerection (0-15 min) | Ptosis (0-15 min) | Salivation (0-15 min) | Sedation (0-15 min) | Tachypnea (0-15 min) | Tremors (0-15 min) | Urination (0-15 min) | Vocalization (0-15 min) | Ataxia (15 min) | Convulsions (15 min) | Hypnosis (15 min) | Limb abduction (15 min) | Muscle tone (15 min) | Pedaling (15 min) | Piloerection (15 min) | Ptosis (15 min) | Salivation (15 min) | Sedation (15 min) | Tachypnea (15 min) | Tremors (15 min) | Urination (15 min) | Vocalization (15 min) | Ataxia (30 min) | Convulsions (30 min) | Hypnosis (30 min) | Limb abduction (30 min) | Muscle tone (30 min) | Pedaling (30 min) | Piloerection (30 min) | Ptosis (30 min) | Salivation (30 min) | Sedation (30 min) | Tachypnea (30 min) | Tremors (30 min) | Urination (30 min) | Vocalization (30 min) | Ataxia (60 min) | Convulsions (60 min) | Hypnosis (60 min) | Limb abduction (60 min) | Muscle tone (60 min) | Pedaling (60 min) | Piloerection (60 min) | Ptosis (60 min) | Salivation (60 min) | Sedation (60 min) | Tachypnea (60 min) | Tremors (60 min) | Urination (60 min) | Vocalization (60 min) | Ataxia (2h) | Convulsions (2h) | Hypnosis (2h) | Limb abduction (2h) | Muscle tone (2h) | Pedaling (2h) | Piloerection (2h) | Ptosis (2h) | Salivation (2h) | Sedation (2h) | Tachypnea (2h) | Tremors (2h) | Urination (2h) | Vocalization (2h) | Ataxia (3h) | Convulsions (3h) | Hypnosis (3h) | Limb abduction (3h) | Muscle tone (3h) | Pedaling (3h) | Piloerection (3h) | Ptosis (3h) | Salivation (3h) | Sedation (3h) | Tachypnea (3h) | Tremors (3h) | Urination (3h) | Vocalization (3h) | Ataxia (4h) | Convulsions (4h) | Hypnosis (4h) | Limb abduction (4h) | Muscle tone (4h) | Pedaling (4h) | Piloerection (4h) | Ptosis (4h) | Salivation (4h) | Sedation (4h) | Tachypnea (4h) | Tremors (4h) | Urination (4h) | Vocalization (4h) | Ataxia (24h) | Convulsions (24h) | Hypnosis (24h) | Limb abduction (24h) | Muscle tone (24h) | Pedaling (24h) | Piloerection (24h) | Ptosis (24h) | Salivation (24h) | Sedation (24h) | Tachypnea (24h) | Tremors (24h) | Urination (24h) | Vocalization (24h)
